Data taken from patent publication US8580545B2, “Biodegradable linkers for molecular therapies” (The Children's Hospital of Philadelphia, priority 2004, dated 2013).

Test: Hydrolysis of the ester bond of the cross-linker (model experiments)
Details: 37° C.

Row | SMILES | t1/2 of the ester bond hydrolysis
1 | O=C(CCCCC(=O)ON1C(=O)CC(S(=O)(=O)[O-])C1=O)NCC(=O)OCCSSc1ccccn1.[Na+] (centres unmarked) [cross-linker 2] | several days
2 | O=C(CCSSc1ccccn1)NCCCOC(=O)CCCCC(=O)ON1C(=O)CC(S(=O)(=O)[O-])C1=O.[Na+] (centres unmarked) [cross-linker 1] | several weeks
